{"source": "paper PMC6271966", "about": "“Synthesis and Biological Activity of Some Bile Acid-Based Camptothecin Analogues” (Molecules, 2014)", "key": {"SMMC-7721 cells": {"test_system": "SMMC-7721 cells", "experiment": "Fluorescence microscopy of compound entry into SMMC-7721 cells", "type": "cell-based, human", "conditions": "10 or 20 µM, up to 4 h at 37 °C, ultraviolet light", "procedure": "(§1) Compound E2 (final concentrations of 10 µM/mL and […]) and CPT (final concentrations of 10 µM/mL and 20 µM/mL) were directly added to the cell culture medium and incubated for 1 h, 2 h or 4 h at 37 °C. The cells were then gently washed three times with physiological saline. Cellular fluorescence was imaged using a fluorescence microscope (Zeiss inverted Microscope Axiovert 200 equipped with a NIKON DS-FiL (Sendai, Japan). The images were taken using ultraviolet light."}, "[1]": {"experiment": "Body weight and surviving mice in the H22 in vivo study", "design": "species or system mouse", "conditions": "for Mice Number End of Study: 4 mice at start", "procedure": "Anti-tumour activity screens of CPT-bile acid analogues were conducted in KM mice with H22 mouse liver tumours. […] These groups (n = 4) were treated with either vehicle (control), CPT, or the CPT-bile acid analogues. Mice received i.p. treatments once every two days."}, "MCF-7 cells": {"test_system": "MCF-7 cells", "experiment": "Fluorescence microscopy of compound entry into MCF-7 cells", "type": "cell-based, human", "conditions": "data not shown", "procedure": "as §1"}, "[2]": {"test_system": "human breast cancer cell line (MCF-7)", "experiment": "MTT cytotoxicity assay, MCF-7", "type": "cell-based", "procedure": "(§2) The cytotoxicity of these compounds against three cancer cell lines was assayed using a conventional microtitre plate tetrazolium cytotoxicity assay. The human hepatoma cancer cell line (SMMC-7721), the colon cancer cell line (HCT-116), and the human breast cancer cell line (MCF-7) were provided by The Chinese Academy of Sciences cell bank. These cells were plated at a density of 1 × 10^5 cells/mL and incubated in a 96-well late for 24 h (37 °C, 5% CO2). The cells were then exposed to various concentrations of the compounds (0.0032, 0.016, 0.08, 0.4, 2, 10, and 50 µM/mL) continuously for 72 h. After this incubation, MTT solution (20 μL, 5 mg/mL) was added to each well and incubated for a further 4 h before removing the media. Formazan crystals were then dissolved by the addition of DMSO (100 μL per well). After mixing, the absorbance was read at 540 nm on a microplate reader. These assays were performed in three independent experiments. Wells containing no drugs, or CPT, were used as negative and positive controls, respectively. The IC50 values, defined as the concentration of compounds that produced a 50% decrease in surviving cells, were calculated using the Logit-method."}, "[3]": {"experiment": "Lactone stability in rat blood serum (HPLC)", "type": "in vitro ADME", "procedure": "Compounds E2, F2, G2, and H2 were dissolved in DMSO (100 μL, 4 mM/L) and incubated in rat blood serum (4 mL) at 37 °C. Aliquots were taken at different time points (0, 2, 4, 6, 8, 10, 12, and 24 h) and examined by HPLC, using CPT as the reference."}, "H22 mouse liver tumours": {"test_system": "H22 mouse liver tumours", "experiment": "In vivo anti-tumour activity, H22 mouse liver tumour model", "conditions": "H22 KM mice, i.p. every two days", "procedure": "Anti-tumour activity screens of CPT-bile acid analogues were conducted in KM mice with H22 mouse liver tumours. Briefly, female mice weighing 18–22 g were subcutaneously inoculated at the right flank with a tumour cell suspension (1 × 10^6 cells) in 0.2 mL of phosphate-buffered saline. The mice were divided into subgroups 24 h after inoculation. These groups (n = 4) were treated with either vehicle (control), CPT, or the CPT-bile acid analogues. Mice received i.p. treatments once every two days. When the tumour weight of the control group reached 1.0–1.5 g, the mice were killed and the TIR (%) calculated."}, "[4]": {"conditions": "in this project", "procedure": "Preliminary anti-tumour activity studies of E2, G4, and H2 were evaluated in vivo in a mouse liver adenocarcinoma model (H22) and compared with CPT."}, "[5]": {"test_system": "human hepatoma cell line (SMMC-7721)", "experiment": "MTT cytotoxicity assay, SMMC-7721", "type": "cell-based", "procedure": "as §2"}, "[6]": {"test_system": "human colon cancer cell line (HCT-116)", "experiment": "MTT cytotoxicity assay, HCT-116", "type": "cell-based", "procedure": "as §2"}}, "note": "Like-named read-outs stand apart in the source and are kept apart here."}
{"compound": "CC[C@@]1(O)C(=O)OCc2c1cc1n(c2=O)Cc2cc3ccccc3nc2-1", "note": "[CPT, Camptothecin]", "values": [{"measurement": "Cellular fluorescence (accumulation in cells)", "setting": "SMMC-7721 cells", "result": "no distinct fluorescence"}, {"measurement": "Mice Number End of Study", "setting": "[1]; dose 27.45 × 3 µmol/kg i.p.", "result": 3}, {"measurement": "Body Weight (g) End of Study", "setting": "[1]; dose 27.45 × 3 µmol/kg i.p., start of study 21.4 g", "result": 18.6, "unit": "g"}, {"measurement": "Cellular fluorescence (accumulation in cells)", "setting": "MCF-7 cells", "result": "no fluorescent signal"}, {"measurement": "IC50", "setting": "[2]; MCF7, MTT, 72 h exposure, MCF-7, read-out: In Vitro Cytotoxicity (IC50, µM) MCF-7", "result": 0.57, "unit": "µM"}, {"measurement": "half-life at 97.6 µM", "setting": "[3]; rat blood serum, 37 °C, HPLC, up to 24 h, read-out: Half-Life (converted)", "result": 2.3, "unit": "h"}, {"measurement": "TIR (%)", "setting": "H22 mouse liver tumours; dose 27.45 × 3 µmol/kg", "result": 67.26, "unit": "%"}, {"measurement": "maximum dose which the mouse can tolerate", "setting": "[4]", "result": 27.45, "unit": "µmol/kg"}, {"measurement": "IC50", "setting": "[5]; MTT, 72 h exposure, SMMC-7721, read-out: In Vitro Cytotoxicity (IC50, µM) SMMC7721", "result": 0.56, "unit": "µM"}, {"measurement": "IC50", "setting": "[6]; MTT, 72 h exposure, HCT-116, read-out: In Vitro Cytotoxicity (IC50, µM) HCT-116", "result": 0.52, "unit": "µM"}]}
{"compound": "CC[C@@]1(OC(=O)CNC(=O)CCC(C)C2CCC3C4CCC5C[C@H](O)CC[C@]5(C)C4C[C@H](O)[C@]23C)C(=O)OCc2c1cc1n(c2=O)Cc2cc3ccccc3nc2-1", "note": "(stereo partly drawn) [Compound E2, Camptothecin-20 (S)-O-glycine Ester-[N-(3′α,12′α-dihydroxy-24′-carbonyl-5′β-cholane)]]", "values": [{"measurement": "Cellular fluorescence (accumulation in cells)", "setting": "SMMC-7721 cells", "result": "accumulated in the SMMC-7721 cells"}, {"measurement": "Mice Number End of Study", "setting": "[1]; dose 19.23 × 3 µmol/kg i.p.", "result": 4}, {"measurement": "Body Weight (g) End of Study", "setting": "[1]; dose 19.23 × 3 µmol/kg i.p., start of study 19.9 g", "result": 21.9, "unit": "g"}, {"measurement": "Mice Number End of Study", "setting": "[1]; dose 38.45 × 3 µmol/kg i.p.", "result": 4}, {"measurement": "Body Weight (g) End of Study", "setting": "[1]; dose 38.45 × 3 µmol/kg i.p., start of study 20.5 g", "result": 21.5, "unit": "g"}, {"measurement": "Mice Number End of Study", "setting": "[1]; dose 57.69 × 3 µmol/kg i.p.", "result": 4}, {"measurement": "Body Weight (g) End of Study", "setting": "[1]; dose 57.69 × 3 µmol/kg i.p., start of study 20.5 g", "result": 20.6, "unit": "g"}, {"measurement": "melting point", "result": "203 to 204", "unit": "°C"}, {"measurement": "Cellular fluorescence (accumulation in cells)", "setting": "MCF-7 cells", "result": "no fluorescent signal"}, {"measurement": "IC50", "setting": "[2]; MCF7, 72 h, read-out: In Vitro Cytotoxicity (IC50, µM) MCF-7", "result": 150, "unit": "µM"}, {"measurement": "half-life at 97.6 µM", "setting": "[3]; rat, serum", "result": "> 24", "unit": "h"}, {"measurement": "TIR (%)", "setting": "H22 mouse liver tumours; dose 19.23 × 3 µmol/kg", "result": 4.09, "unit": "%"}, {"measurement": "TIR (%)", "setting": "H22 mouse liver tumours; dose 38.45 × 3 µmol/kg", "result": 16.10, "unit": "%"}, {"measurement": "TIR (%)", "setting": "H22 mouse liver tumours; dose 57.69 × 3 µmol/kg", "result": 40.13, "unit": "%"}, {"measurement": "IC50", "setting": "[5]; SMMC-7721, 72 h, read-out: In Vitro Cytotoxicity (IC50, µM) SMMC7721", "result": 0.36, "unit": "µM"}, {"measurement": "IC50", "setting": "[6]; HCT-116, 72 h, read-out: In Vitro Cytotoxicity (IC50, µM) HCT-116", "result": 15.8, "unit": "µM"}]}
